Results taken from patent publication EP4790048A1, “S1PR4 REGULATOR COMPOUND FOR AUTOIMMUNE DISEASE TREATMENT AND APPLICATION THEREOF” (Shengyuan Zetong (Shanghai) Pharmaceutical Co., Ltd, priority 2023, dated 2025).
Numbering of substitutions follows the chain as printed.

Experiments:
[1] = molecular target: T1, hS1P4-R-79C (Homo sapiens, UniProt O95977, R79C); test: Tango β-arrestin recruitment luciferase assay, Tango-hS1P4-R-79C-CHO (S1PR4 mutant); type: cell-based; conditions: 20 h drug treatment
T1 construct: expressed in transfected cells; host or cells: CHO
T1 sequence (O95977 1-384 R79C): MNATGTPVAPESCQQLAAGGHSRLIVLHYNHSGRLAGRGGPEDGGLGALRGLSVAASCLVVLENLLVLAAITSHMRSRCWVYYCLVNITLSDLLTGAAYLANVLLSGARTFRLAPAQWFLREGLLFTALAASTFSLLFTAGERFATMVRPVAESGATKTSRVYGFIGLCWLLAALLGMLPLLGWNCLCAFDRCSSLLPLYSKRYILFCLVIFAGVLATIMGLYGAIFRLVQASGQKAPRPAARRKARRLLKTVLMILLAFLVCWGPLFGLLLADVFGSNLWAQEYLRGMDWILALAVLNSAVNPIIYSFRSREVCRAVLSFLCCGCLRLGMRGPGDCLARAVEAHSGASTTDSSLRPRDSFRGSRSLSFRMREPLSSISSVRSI
Source text: The Tango assay detects ligand-dependent GPCR activity through the interaction between β-arrestin and GPCRs. […] The NTEV fragment and the tetracycline transactivator (tTA), an artificial transcription factor, are fused at the C-terminus of the GPCR, while the CTEV fragment is fused to human β-arrestin 2. To enhance the stability of the interaction between GPCR and β-arrestin, a short sequence from the C-terminus of the human arginine vasopressin receptor 2 (V2 tail) is inserted between the GPCR and NTEV. The V2 tail contains multiple GRK phosphorylation sites, which strengthen β-arrestin binding upon phosphorylation. The CTEV fragment carries the stabile point mutation S219P and is truncated at residue 221 to remove the autoinhibitory C-terminal tail. Meanwhile, β-arrestin 2 is truncated to lack the entire C-terminal tail (residues 383-410 deleted). This truncation confers robust stimulus-dependent receptor desensitization, thereby improving detection sensitivity compared with wild-type β-arrestin 2. The UAS reporter construct consists of upstream activating sequence (UAS) elements, a minimal CMV promoter, and a tTA-dependent luciferase reporter gene. Therefore, constructing Tango cells requires the co-transfection of the above three plasmids into host cells. Upon GPCR activation and β-arrestin recruitment, the TEV enzyme at the β-arrestin terminus cleaves tTA from the GPCR C-terminus. The released tTA initiates tTA-dependent luciferase transcription, and compound activity is ultimately determined by measuring luminescence intensity.
• 1) Tango cell line from was digested from the culture dish respectively. After cell counting, the cells were plated at a density of 10,000 cells per well with […] into a white opaque 96-well plate (add 60 µL D'Hanks to the surrounding wells), and incubated overnight (20 h) in a 5% CO2 incubator at 37°C. The cell density will reach approximately 90% the next day. • 2) After 20 h, 30 µL of serially diluted compound solution was added to each well. The control group was supplemented with 30 µL F12K complete medium. Each group had three replicate wells. • 3) Samples were collected after 20 h of drug treatment.
(All compounds were tested at a final concentration of 45 µM, with 9 serial dilutions at 5-fold intervals. 1 µM BAF-312 was used as the positive control for S1PR1, and 25 µM BAF-312 was used as the positive control for S1PR4.

[2] = molecular target: T2, S1PR4 (Homo sapiens, UniProt O95977); test: S1PR4 internalization and recovery test in S1PR4-293T cells; type: cell-based; conditions: 1 µM, 37 °C, 1.5 hours; detected immediately, 5 hours or 20 hours after treatment
T2 construct: expressed in transfected cells; host or cells: 293T
T2 sequence (O95977 1-384): T1 sequence (O95977 1-384 R79C) with C79R
Protocol: Therefore, the recovery degree of S1PR4 after internalization caused by Compound 30 was evaluated, and the recovery effect following receptor internalization caused by Compound 30 was assessed in cells with high S1PR4 expression.

CCc1cc(/C(C)=N/OCc2ccc(-c3ccccc3)c(C)c2)ccc1CN1CC[C@H](C(=O)O)C1 [Compound 30]
EC50 [1]: 15 nM | S1PR4 internalization (expression of S1PR4 receptor on the cell surface) [2]: sustained internalization of S1PR4 for up to 20 hours
